The target in data set [1] is T1, JAK3 (Homo sapiens, UniProt P52333).
T1 sequence (P52333 1-1124): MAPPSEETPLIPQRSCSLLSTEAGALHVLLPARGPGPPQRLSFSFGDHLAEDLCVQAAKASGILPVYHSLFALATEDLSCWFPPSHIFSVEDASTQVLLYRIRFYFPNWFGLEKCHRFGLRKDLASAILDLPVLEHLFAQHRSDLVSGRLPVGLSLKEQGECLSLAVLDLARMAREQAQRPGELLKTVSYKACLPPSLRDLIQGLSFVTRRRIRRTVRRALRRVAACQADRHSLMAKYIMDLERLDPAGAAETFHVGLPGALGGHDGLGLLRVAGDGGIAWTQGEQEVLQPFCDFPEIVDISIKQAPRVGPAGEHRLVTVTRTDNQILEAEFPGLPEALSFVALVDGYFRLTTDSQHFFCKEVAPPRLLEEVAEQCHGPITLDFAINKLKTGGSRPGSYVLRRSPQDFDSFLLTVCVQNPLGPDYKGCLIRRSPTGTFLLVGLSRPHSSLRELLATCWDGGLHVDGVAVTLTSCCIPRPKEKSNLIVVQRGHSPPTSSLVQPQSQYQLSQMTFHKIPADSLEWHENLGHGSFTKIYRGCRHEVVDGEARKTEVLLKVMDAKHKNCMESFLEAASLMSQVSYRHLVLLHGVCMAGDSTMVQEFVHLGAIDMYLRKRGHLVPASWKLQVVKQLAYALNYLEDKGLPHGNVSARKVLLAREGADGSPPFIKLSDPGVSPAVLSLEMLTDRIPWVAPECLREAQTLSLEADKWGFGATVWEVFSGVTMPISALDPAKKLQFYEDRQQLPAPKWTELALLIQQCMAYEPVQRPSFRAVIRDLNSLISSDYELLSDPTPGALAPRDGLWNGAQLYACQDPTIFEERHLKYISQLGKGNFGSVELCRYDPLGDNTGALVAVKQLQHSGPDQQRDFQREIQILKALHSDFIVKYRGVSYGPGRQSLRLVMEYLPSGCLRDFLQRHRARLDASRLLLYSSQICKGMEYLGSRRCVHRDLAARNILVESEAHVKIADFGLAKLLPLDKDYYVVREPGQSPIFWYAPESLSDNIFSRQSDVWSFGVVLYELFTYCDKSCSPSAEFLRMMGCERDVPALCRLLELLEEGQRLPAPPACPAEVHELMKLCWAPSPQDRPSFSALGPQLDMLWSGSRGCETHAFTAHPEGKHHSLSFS
The data set can be described thus: Z'LYTE JAK kinase inhibition assay, JAK3. The class given is biochemical. Conditions: read-out: JAK Catalytic Selectivity (IC50) JAK3.

The target in data set [2] is T2, CYP450 1A2 (Homo sapiens, UniProt P05177).
T2 sequence (P05177 1-516): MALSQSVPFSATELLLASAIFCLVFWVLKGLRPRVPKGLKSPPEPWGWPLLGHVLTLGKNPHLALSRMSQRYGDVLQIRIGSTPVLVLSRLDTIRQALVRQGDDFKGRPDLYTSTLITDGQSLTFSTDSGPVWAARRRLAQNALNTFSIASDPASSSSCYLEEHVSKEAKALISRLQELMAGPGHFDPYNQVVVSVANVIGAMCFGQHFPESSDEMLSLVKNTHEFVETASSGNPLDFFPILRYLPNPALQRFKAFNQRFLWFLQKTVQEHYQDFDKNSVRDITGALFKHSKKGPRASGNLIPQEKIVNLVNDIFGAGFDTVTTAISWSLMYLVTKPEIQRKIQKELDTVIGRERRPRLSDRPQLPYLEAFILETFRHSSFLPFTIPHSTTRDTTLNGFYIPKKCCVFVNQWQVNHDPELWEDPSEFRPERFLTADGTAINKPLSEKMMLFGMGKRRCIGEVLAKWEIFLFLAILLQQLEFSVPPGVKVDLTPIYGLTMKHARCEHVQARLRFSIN
The data set is described as follows: CYP450 inhibition, 1A2. The class given is in vitro ADME.

Data set [3] concerns the target T3, JAK2 JH2 pseudokinase domain (Homo sapiens, UniProt O60674).
T3 construct: purchased Eurofins DiscoverX Corporation (contract assay)
The data set is described as follows: KdELECT competition binding assay, JAK2 JH2. Conditions: read-out: JAK Binding Selectivity (Kd) Pseudokinase Domain (JH2) JAK2. As to the method: (§1) The KdELECT competition assays were performed to test the binding affinity of compounds to the JH1 kinase region or JH2 pseudokinase region in TYK2 or JAK by ligand competition with JH1 or JH2 protein segments. The assay was carried out at Eurofins DiscoverX Corporation following the established standard protocol (DiscoverX, San Diego, CA). In this assay, compounds that bind to the kinase or pseudokinase protein regions prevent the protein binding to the immobilized ligand and reduce the amount of kinase matter captured on the solid surface. […] Dissociation constants (Kds) for test compound-kinase interactions are calculated by measuring the amount of kinase captured on the solid support as a function of the test compound concentration. […] The ligated beads were blocked with excess biotin and washed with blocking buffer to remove unbound ligand and to reduce nonspecific binding. […] All reactions were performed in polypropylene 384-well plates with a final volume of 20 μL. […] The beads were then re-suspended in the elution buffer and incubated at room temperature with shaking for 30 minutes. The kinase concentration in the eluant was measured by qPCR. Two replicates were performed and averaged to obtain the Kd measurement.

In data set [4] the target is T4, JAK2 JH1 kinase domain (Homo sapiens, UniProt O60674).
T4 construct: purchased Eurofins DiscoverX Corporation (contract assay)
The data set is described as follows: KdELECT competition binding assay, JAK2 JH1. Conditions: read-out: JAK Binding Selectivity (Kd) Catalytical Domain (JH1) JAK2. As to the method:
as §1

Data set [5] has as its target JAK1 (Homo sapiens, UniProt P23458). The data set is described as follows: Z'LYTE JAK kinase inhibition assay, JAK1. Type of data set: biochemical. Conditions: read-out: JAK Catalytic Selectivity (IC50) JAK1.
The nature of data set [6]: PPB, D. Type of data set: in vitro ADME. Conditions: dog, plasma.
Data set [7] concerns IL23-induced TYK2/phosphoSTAT3 (Tyr705) in Kit225 T cells. The data set is described as follows: Kit225 T cell assay for IL23-induced TYK2/phosphoSTAT3 activity. Type of data set: cell-based, human. Conditions: Homo sapiens; Kit225 cells, 100 ng/mL IL23, AlphaLISA; read-out: IC50 IL23-induced-STAT3 Phosphorylation. As to the method: The cells were treated with serially diluted compounds for 1 hour and stimulated with 100 ng/mL human recombinant IL23 (R&D Systems) for 20 minutes. The treated cells were then lysed and cellular phosphorylated-STAT3 (Tyr705) levels were measured by AlphaLISA (PerkinElmer, Cat# ALSU-PST3) according to the manufacturer’s instructions.
(In general: Bead proximity is the source of the signal in Alpha formats.)

The test system of data set [8] is IFNα-induced TYK2/phosphoSTAT1 (Tyr701) in Kit225 T cells. The data set can be described thus: Kit225 T cell assay for IFNα-induced TYK2/phosphoSTAT1 activity. Type of data set: cell-based, human. Conditions: Homo sapiens; Kit225 cells, 80 ng/mL IFNα, AlphaLISA; read-out: IC50 IFNα-induced-STAT1 Phosphorylation. As to the method: The cells were treated with serially diluted compounds for 1 hour and stimulated with 80 ng/mL human recombinant IFNα (R&D Systems) for 15 minutes. The treated cells were then lysed and cellular phosphorylated-STAT1 (Tyr701) levels were measured by AlphaLISA (PerkinElmer, Cat#ALSU-PST1) according to the manufacturer’s instructions.

The structures appear in SMILES notation.

T4 sequence (O60674 849-1124 limits assumed): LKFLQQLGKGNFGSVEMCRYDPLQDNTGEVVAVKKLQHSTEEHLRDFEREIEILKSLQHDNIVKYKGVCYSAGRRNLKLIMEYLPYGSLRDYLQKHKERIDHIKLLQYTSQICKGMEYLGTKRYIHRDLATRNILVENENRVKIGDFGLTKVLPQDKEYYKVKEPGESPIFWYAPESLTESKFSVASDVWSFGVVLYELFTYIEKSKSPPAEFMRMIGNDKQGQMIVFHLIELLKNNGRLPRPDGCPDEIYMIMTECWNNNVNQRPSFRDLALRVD
JAK1, sequence (P23458 whole entry): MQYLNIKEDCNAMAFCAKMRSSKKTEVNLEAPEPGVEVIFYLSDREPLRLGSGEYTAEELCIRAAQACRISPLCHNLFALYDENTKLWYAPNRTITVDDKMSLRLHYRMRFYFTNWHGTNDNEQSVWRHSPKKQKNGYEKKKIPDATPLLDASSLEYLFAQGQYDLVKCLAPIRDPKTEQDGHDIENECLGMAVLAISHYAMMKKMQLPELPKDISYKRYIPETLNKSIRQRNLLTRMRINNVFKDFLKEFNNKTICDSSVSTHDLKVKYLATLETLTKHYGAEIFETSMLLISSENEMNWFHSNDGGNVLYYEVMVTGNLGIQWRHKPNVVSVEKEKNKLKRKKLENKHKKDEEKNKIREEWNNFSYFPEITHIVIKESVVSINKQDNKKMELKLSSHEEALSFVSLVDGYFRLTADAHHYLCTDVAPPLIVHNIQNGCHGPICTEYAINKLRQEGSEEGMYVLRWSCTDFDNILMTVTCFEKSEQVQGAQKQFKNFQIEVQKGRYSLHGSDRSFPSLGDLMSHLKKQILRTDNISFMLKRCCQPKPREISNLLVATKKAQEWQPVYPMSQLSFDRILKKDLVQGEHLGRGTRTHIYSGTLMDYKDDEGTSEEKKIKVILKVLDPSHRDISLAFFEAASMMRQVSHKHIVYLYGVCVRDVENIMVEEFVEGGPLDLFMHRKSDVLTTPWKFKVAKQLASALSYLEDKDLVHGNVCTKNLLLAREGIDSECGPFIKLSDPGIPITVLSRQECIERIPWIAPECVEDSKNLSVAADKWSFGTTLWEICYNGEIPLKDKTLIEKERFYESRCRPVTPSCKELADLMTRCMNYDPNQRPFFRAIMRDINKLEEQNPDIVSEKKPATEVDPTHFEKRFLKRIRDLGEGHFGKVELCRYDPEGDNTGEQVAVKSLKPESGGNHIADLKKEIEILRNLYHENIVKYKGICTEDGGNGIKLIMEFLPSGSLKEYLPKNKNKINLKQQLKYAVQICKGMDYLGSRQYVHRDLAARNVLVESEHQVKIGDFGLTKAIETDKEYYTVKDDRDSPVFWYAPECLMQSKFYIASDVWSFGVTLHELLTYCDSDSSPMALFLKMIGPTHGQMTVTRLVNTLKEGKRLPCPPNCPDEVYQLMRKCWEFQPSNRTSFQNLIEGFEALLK
T3 sequence (O60674 545-809 limits assumed): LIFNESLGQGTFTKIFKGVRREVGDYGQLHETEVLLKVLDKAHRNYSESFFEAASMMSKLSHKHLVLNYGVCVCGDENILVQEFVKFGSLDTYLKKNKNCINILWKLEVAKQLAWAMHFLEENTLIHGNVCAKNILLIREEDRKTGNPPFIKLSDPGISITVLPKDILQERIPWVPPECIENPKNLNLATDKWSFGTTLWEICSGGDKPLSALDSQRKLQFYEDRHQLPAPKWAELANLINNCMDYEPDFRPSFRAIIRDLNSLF

For orientation: IC50 means the concentration that inhibits the measured activity by half. The Kd is the free concentration of one partner at which half of the binding sites on the other are occupied at equilibrium, for simple one-to-one binding. Usually fraction unbound stands for the share of the substance not bound to proteins or other matrix. High values mean weak binding, low ones extensive binding. `[2H]C([2H])([2H])NC(=O)c1nnc(NC(=O)N2CCC2)cc1Nc1cccc(-c2ncn(C)n2)c1OC` [SHR9332]: the half-inhibitory concentration (IC50) in data set [1] is above 10 µM; in data set [2] it was above 30 µM; in data set [5], above 10 µM; in data set [7] it was 79 nM; in data set [8] it was 76 nM. The Kd in data set [3] was 220 nM; in data set [4], 2 µM. The compound also yielded a fraction unbound in data set [6] of 0.325.

For the compound `CNC(=O)c1nnc(NC(=O)C2CC2)c2[nH]c(-c3ccc(N)cc3OC)cc12` [SHR2396], the half-maximal inhibitory concentration (IC50) in data set [1] is above 10 µM; in data set [2], above 30 µM; in data set [5], above 10 µM; in data set [7] it was 5.9 nM; in data set [8], 15 nM. Also, the Kd was 190 ± 99 nM in data set [3] and above 20 µM in data set [4]. Besides, the fraction unbound in data set [6] was 0.0434.

With `CNC(=O)c1nnc(NC(=O)N2CCC2)cc1Nc1cccc(-c2ncn(C)n2)c1OC` [SHR8751], the IC50 in data set [1] was above 10 µM; in data set [2], above 30 µM; in data set [5] it was above 10 µM; in data set [7], 27 nM; in data set [8], 37 nM. Also, the figures for the Kd in data set [3] and in data set [4] were 290 ± 99 nM and 6.5 ± 1.7 µM, respectively. For the same compound, the free fraction (fraction unbound) in data set [6] was 0.377.

The record behind these values is PMC9186491, “Novel Small Molecule Tyrosine Kinase 2 Pseudokinase Ligands Block Cytokine-Induced TYK2-Mediated Signaling Pathways” (Frontiers in Immunology, 2022).
